Test results as given in US20040254129A1, “Use of ethoxylated phytosterols and phytostanols” (priority 2001, published 2004).
Like-named read-outs stand apart in the source and are kept apart here. Marks after values point to notes of the source that are not given here. Each block holds one compound with its values, some of them ahead of it.

Key:
[1] = Solubilization of griseofulvin by surfactants (UV absorption spectrometry); assay type: physicochemical
Protocol: For each of the surfactants, four samples with different surfactant concentrations were prepared. The surfactants were dissolved and diluted in pure and filtered water. Griseofulvin was added in excess and the samples were allowed to equilibrate for 4 hours at 45° C. followed by 20 hours at room temperature. The samples were thoroughly shaken during the whole equilibration time. The samples were subsequently centrifuged to remove undissolved griseofulvin. The concentration of dissolved griseofulvin was determined by UV absorption spectrometry. The absorbance was recorded at the wavelength for maximum absorption, λmax=295 nm.
In line with the definition in Example 8, the solubilization capacity becomes [formula]

[2] = test system: erythrocytes extracted from dog blood; test: Determination of the lysis of erythrocytes
Protocol: (§1) Erythrocytes were extracted from dog blood by a centrifugation—resuspension procedure. The fresh blood was subjected to mild centrifugation at 2000×g for 10 mins. The excessive blood plasma was removed and the so-obtained sediment of erythrocytes was resuspended in normal saline (0.9% NaCl in water). This procedure was repeated twice. The final volume of the erythrocyte suspension was equal to the initial volume of the fresh blood. Surfactant solutions with varying concentration of the surfactant were prepared by dissolving and diluting appropriate amounts of surfactants in 0.9% (w/w) NaCl in water. 100 μl surfactant solution was added to 400 μl erythrocyte suspension. The samples were vigorously agitated for 5 seconds immediately after addition, followed by 20 mins incubation at 37° C. under gentle shaking. The samples were centrifuged for 6 mins at 3000 g and 5° C. The centrifugation separated the samples into sediments of intact erythrocytes and a supernatant. A small fraction of the supernatant was removed and analysed with respect to hemoglobin content. The hemoglobin was allowed to undergo a chemical reaction with H2O2, aminophenazon, and phenol. […] From this concentration, the initial concentration of hemoglobin was calculated. Each determination was carried out for triplicate samples.
(§2) Negative control samples, i.e. samples for the determination of background lysis, were prepared by adding 100 μl normal saline to 400 μl erythrocyte suspension. These samples were treated and analysed in the same way as described above.
(§3) Positive control samples, i.e. samples for the determination of total hemoglobin content, were prepared by diluting the erythrocyte suspension 500 times with distilled water. The dilution caused complete lysis of all erythrocytes, and the concentration of released hemoglobin could be determined as described above.
(§4) The degree of lysis was calculated according to the following expression [formula]
(§5) where % L is the degree of lysis in %, [Hb] the concentration of released hemoglobin in the mixture of erythrocytes and surfactant, [Hb]0 the concentration of released hemoglobin in the negative control (basal hemolysis), and [Hb]tot the total concentration of hemoglobin in the mixtures of erythrocytes and surfactant.
(§6) The degree of lysis was determined as a function of the surfactant concentration in the mixture of erythrocytes and surfactant.
(§7) The activity of each surfactant to cause lysis of erythrocytes is indicated by the position of the lysis curve in the diagram. For a surfactant with low activity, a high concentration is required to obtain a certain degree of lysis. Here, the activity is quantified by considering the concentration at which 10% lysis is obtained. The higher the concentration, the lower the activity.

[3] = test system: fresh blood taken from beagle dog (red blood cells); test: Determination of hemolysis in fresh blood; assay type: cell-based; settings: for Hemolytic activity (concentration range at which 5% hemolysis is obtained): surfactant concentration in blood/surfactant mixture, read from hemolysis curves
Protocol: 100 μl surfactant solution was added to 400 μl fresh blood taken from beagle dog. The blood and surfactant mixture was gently agitated for 2-3 seconds immediately after addition, followed by 10 mins incubation at 37° C. under gentle shaking. […] During centrifugation the sample separated into a sediment of red blood cells and a supernatant. […] Each determination was carried out for triplicate samples.
After 30 minutes 400 μl of the so-obtained solution was mixed with 100 μl normal saline. From the resulting solution, a small fraction was removed and analysed with respect to hemoglobin content with a Cobas Bio spectrophotometer.
The degree of hemolysis was calculated according to the following expression [formula]
The position of the hemolysis curve along the concentration axis in such a diagram determines the hemolytic activity. The more hemolytic a surfactant is, the lower concentration is required to obtain a certain degree of hemolysis. In order to quantify the hemolytic activity, the concentration was considered at which 5% hemolysis was obtained. The higher the concentration, the lower the activity. The procedure was repeated at least once for all surfactants.

[4] = Solubilization of felodipine by surfactants (14C scintillation detection); assay type: physicochemical; settings: for solubility of felodipine on addition of the surfactant (in words): 0.9% (w/w) NaCl in water
Protocol: Both ^14C-labelled and non-labelled felodipine were provided by AstraZeneca AB. In order to obtain a molecularly homogeneous mixture of labelled and non-labelled felodipine, both components were dissolved in chloroform. After a clear solution was obtained, the solvent was evaporated. […] The surfactants were dissolved and diluted in 0.9% (w/w) NaCl in water. The felodipine was added in excess and the samples were allowed to equilibrate for over 48 hours in room temperature under thorough shaking. The samples were filtered using 4 mm Durapore filters (0.45 μm, Millipore) to remove undissolved felodipine. […] From each sample 0.5 ml solution was withdrawn and mixed with 3.5 ml scintillation liquid. The concentration of dissolved felodipine was determined by means of scintillation detection using a Beckman LS6500 scintillation counter.
The solubilization capacity of each surfactant with respect to felodipine was determined by considering the slope of the solubilization curves, α. The slope of each curve, α, describes the additional amount of felodipine that can be dissolved in a solution when a small amount of surfactant is added, which is also the definition of the solubilization capacity. [formula]
The solubilization capacity was calculated by fitting a linear expression to the experimental data and extracting the slope, α.

[5] = test system: erythrocytes extracted from dog blood
Protocol: as §1, §2, §3, §4, §5, §6, §7

[6] = no surfactant; cited from earlier work
[7] = surfactant 0.00 mM (no surfactant) in 0.9% (w/w) NaCl

Compound: polyoxyethylene(23) lauryl ether [Brij ® 35]
degree of hemolysis, % H ([3]; surfactant 8.40 mM in blood/surfactant mixture): 0.87%
degree of hemolysis, % H ([3]; surfactant 16.80 mM in blood/surfactant mixture): 2.37%
degree of hemolysis, % H ([3]; surfactant 25.20 mM in blood/surfactant mixture): 5.04%
degree of hemolysis, % H ([3]; surfactant 33.60 mM in blood/surfactant mixture): 7.44%
degree of hemolysis, % H ([3]; surfactant 42.00 mM in blood/surfactant mixture): 10.85%
Hemolytic activity (concentration range at which 5% hemolysis is obtained) [3]: 25 mM
solubility of felodipine on addition of the surfactant (in words) [4]: increased
Felodipine concentration (solubility of felodipine) [4, 7]: <0.07 ^† mM
Felodipine concentration (solubility of felodipine) ([4]; surfactant 10.42 mM in 0.9% (w/w) NaCl): 1.7070 mM
Felodipine concentration (solubility of felodipine) ([4]; surfactant 20.84 mM in 0.9% (w/w) NaCl): 3.4064 mM
Felodipine concentration (solubility of felodipine) ([4]; surfactant 31.26 mM in 0.9% (w/w) NaCl): 5.1085 mM
Felodipine concentration (solubility of felodipine) ([4]; surfactant 41.680 mM in 0.9% (w/w) NaCl): 6.8927 mM

Compound: CCCCCCCCCCCCO[C@@H]1O[C@H](CO)[C@@H](O[C@H]2O[C@H](CO)[C@@H](O)[C@H](O)[C@H]2O)[C@H](O)[C@H]1O [Dodecyl maltoside, n-dodecyl-β-D-maltopyranoside]
Griseofulvin concentration (solubility of griseofulvin) ([1]; surfactant 0.811 mM in water): 10.1 µM
Griseofulvin concentration (solubility of griseofulvin) ([1]; surfactant 1.622 mM in water): 22.1 µM
Griseofulvin concentration (solubility of griseofulvin) ([1]; surfactant 4.054 mM in water): 58.2 µM
Griseofulvin concentration (solubility of griseofulvin) ([1]; surfactant 8.108 mM in water): 115.7 µM
degree of hemolysis, % H ([3]; surfactant 0.098 mM in blood/surfactant mixture): 0.456%
degree of hemolysis, % H ([3]; surfactant 0.196 mM in blood/surfactant mixture): 1.047%
degree of hemolysis, % H ([3]; surfactant 0.392 mM in blood/surfactant mixture): 2.987%
degree of hemolysis, % H ([3]; surfactant 0.588 mM in blood/surfactant mixture): 4.772%
degree of hemolysis, % H ([3]; surfactant 0.784 mM in blood/surfactant mixture): 7.157%
degree of hemolysis, % H ([3]; surfactant 0.980 mM in blood/surfactant mixture): 7.563%
degree of hemolysis, % H ([3]; surfactant 1.177 mM in blood/surfactant mixture): 11.208%
Hemolytic activity (concentration range at which 5% hemolysis is obtained) [3]: 0.6 mM
Activity of lysis (concentration at which 10% lysis is obtained) [5]: 0.8 mM

Compound: COC1=CC(=O)C[C@@H](C)[C@]12Oc1c(Cl)c(OC)cc(OC)c1C2=O [griseofulvin, Griseofulvin]
solubility of griseofulvin in pure water [6]: 23 µM

Now from value to compound, other results behind:

Griseofulvin concentration (solubility of griseofulvin) ([1]; surfactant 2.804 mM in water): 23.4 µM
Griseofulvin concentration (solubility of griseofulvin) ([1]; surfactant 5.608 mM in water): 51 µM
Griseofulvin concentration (solubility of griseofulvin) ([1]; surfactant 14.019 mM in water): 132.9 µM
Griseofulvin concentration (solubility of griseofulvin) ([1]; surfactant 28.038 mM in water): 272 µM
degree of lysis of erythrocytes, % L ([2]; surfactant 0.20 mM in mixture of erythrocytes and surfactant): 0.31%
degree of lysis of erythrocytes, % L ([2]; surfactant 0.40 mM in mixture of erythrocytes and surfactant): 1.96%
degree of lysis of erythrocytes, % L ([2]; surfactant 0.80 mM in mixture of erythrocytes and surfactant): 7.60%
degree of lysis of erythrocytes, % L ([2]; surfactant 1.00 mM in mixture of erythrocytes and surfactant): 9.67%
degree of lysis of erythrocytes, % L ([2]; surfactant 2.01 mM in mixture of erythrocytes and surfactant): 15.11%
degree of lysis of erythrocytes, % L ([2]; surfactant 2.50 mM in mixture of erythrocytes and surfactant): 20.28%
Activity of lysis (concentration at which 10% lysis is obtained) ([2]; surfactant concentration in mixture of erythrocytes and surfactant, read from lysis curves): 1.1 mM
Compound: OC[C@H]1O[C@H](O[C@H]2[C@H](O)[C@@H](O)[C@H](OCCCCCCC3CCCCC3)O[C@@H]2CO)[C@H](O)[C@@H](O)[C@@H]1O [Cyclohexyl-hexyl maltoside, cyclohexyl-n-hexyl-β-D-maltopyranoside]

solubility of felodipine on addition of the surfactant (in words) [4]: increased
Felodipine concentration (solubility of felodipine) [4, 7]: <0.07 ^† mM
Felodipine concentration (solubility of felodipine) ([4]; surfactant 10.89 mM in 0.9% (w/w) NaCl): 2.64 mM
Felodipine concentration (solubility of felodipine) ([4]; surfactant 21.79 mM in 0.9% (w/w) NaCl): 5.22 mM
Felodipine concentration (solubility of felodipine) ([4]; surfactant 32.68 mM in 0.9% (w/w) NaCl): 7.76 mM
Felodipine concentration (solubility of felodipine) ([4]; surfactant 43.57 mM in 0.9% (w/w) NaCl): 10.25 mM
Compound: polyoxyethylene(20) stearyl ether [Brij ® 78]
degree of hemolysis, % H ([3]; surfactant 3.48 mM in blood/surfactant mixture): 1.09%
degree of hemolysis, % H ([3]; surfactant 3.65 mM in blood/surfactant mixture): 1.97%
degree of hemolysis, % H ([3]; surfactant 3.83 mM in blood/surfactant mixture): 2.47%
degree of hemolysis, % H ([3]; surfactant 4.00 mM in blood/surfactant mixture): 3.72%
degree of hemolysis, % H ([3]; surfactant 4.17 mM in blood/surfactant mixture): 6.14%
degree of hemolysis, % H ([3]; surfactant 4.35 mM in blood/surfactant mixture): 9.21%
Hemolytic activity (concentration range at which 5% hemolysis is obtained) [3]: 4 mM

Griseofulvin concentration (solubility of griseofulvin) ([1]; surfactant 117.6 mM in water): 323.2 µM
Griseofulvin concentration (solubility of griseofulvin) ([1]; surfactant 235.1 mM in water): 442.5 µM
Griseofulvin concentration (solubility of griseofulvin) ([1]; surfactant 587.8 mM in water): 445.1 µM
Griseofulvin concentration (solubility of griseofulvin) ([1]; surfactant 1175.7 mM in water): 432 µM
Compound: CCCCCCCCO[C@@H]1O[C@H](CO)[C@@H](O[C@H]2O[C@H](CO)[C@@H](O)[C@H](O)[C@H]2O)[C@H](O)[C@H]1O [Octyl maltoside, n-octyl-β-D-maltopyranoside]
